# Columns and labels:
# asthma mice [1] = assay: Example 6: asthma mice challenged days 9-18, local atomization vs intraperitoneal Dex, lung function and pathology; type: in vivo, BALB/c mice; settings: 40 μg Dex per mouse
# Protocol: (§1) Lung histopathology. The lungs of mice were fixed in 10% formalin, embedded in paraffin, sectioned, stained with H&E (Merck & Co, Inc) and PAS (Sigma), respectively, and examined under a 20-fold microscope.
# Lung function measurement. After being anesthetized with 2% pentobarbital sodium, the mice were subjected to respiratory provocation test with methacholine (Sigma) at 3.125 mg/ml, 6.25 mg/ml, and 12.5 mg/ml prepared in PBS, respectively. The airway resistance curve was plotted and analyzed (FinePoint NAM). The assay was performed using the BUXCO Airway Resistance and Lung Compliance System (BUXCO Electronics).
# Modeling of asthma model mice and administration. The same mice as in Example 1 were used for asthma modeling, which were sensitized by intraperitoneal injection with 100 μg of ovalbumin (OVA) (Sigma) and 2 mg of Al(OH)3 for injection (Sigma) on days 1 and 8, and challenged by daily nasal instillation with 20 μl of 2% OVA on days 9-18. According to the purpose of the experiment, 40 μg Dex was intraperitoneally injected on days 12-18, 14-18 and 16-18, or 25,000 IU IL-2(PEG)+5 μg Bud was administered by atomization on days 16-18, respectively.
# Administration and histopathological analysis were performed in the same manner as in Example 2, and lung function test was performed in the same manner as in Example 3. […]
# CTLL-2 cell = CTLL-2 cell assay of IL-2 activity; type: cell-based; settings: compared with IL-2 working standard
# [2] = system: Treg in bronchoalveolar lavage fluid; assay: Flow cytometry of Treg in bronchoalveolar lavage fluid of OVA asthma mice after atomization in the lung; type: in vivo, BALB/c mice; settings: same dose of the drug alone as in the combination, atomization days 12-14
# Protocol: (§2) Female BALB/c mice aged 6-8 weeks (purchased from SLAC Laboratory Animal Co., Ltd.) were used for modeling of asthma, which were sensitized by intraperitoneal injection with 100 μg of ovalbumin (OVA) (Sigma) and 2 mg of Al(OH)3 for injection (Sigma) on days 1 and 8, and challenged by daily nasal instillation with 20 μl of 2% OVA on days 9-14 (FIG. 1A).
# (§3) The asthma mice model of Example 1 were subjected to drug intervention while challenge by nasal instillation on days 12-14. The specific administration method was that the mice were anesthetized with 7% chloral hydrate (Sangon Biotech (Shanghai) Co., Ltd.) and then administrated quantitatively through atomization in the lung using an atomization metered dosing device (MicroSprayer®—Model IA-1B), and the administration volume was fixed at 25 ul/mouse, and the administration dose was adjusted by the level of concentration. On the 15th day, relevant indicators were detected.
# Collection of bronchoalveolar lavage fluid. The mice were sacrificed by cervical dislocation. […] The IFN-γ, IL-4, IL-10, and IL-13 in the supernatant were measured by using commercial ELISA kit (R&D Corp).
# Flow cytometry. […] All results were analyzed by FlowJo software (Treestar).
# asthma mice [3] = assay: Lung histopathology (H&E, PAS) of OVA asthma mice; type: in vivo, BALB/c mice; settings: same dose of the drug alone as in the combination, atomization days 12-14
# Protocol: as §2, §3, §1
compound,measurement,setting,value
"C[C@@H]1C[C@H]2[C@@H]3CCC4=CC(=O)C=C[C@]4(C)[C@@]3(F)[C@@H](O)C[C@]2(C)[C@@]1(O)C(=O)CO [Dex, dexamethasone]",duration of intraperitoneal injection required to exert a therapeutic effect on asthma,asthma mice [1],at least 7 consecutive days
"PEG-modified IL-2: IL-2 modified with a non-branched PEG of a molecular weight of 20 kD, main site N-terminus",activity,CTLL-2 cell,comparable to that of the IL-2 working standard
"IL-2: human-derived IL-2, sequence SEQ ID NO. 1 (Xiamen Amoytop Biotech Co., Ltd.)","Treg in bronchoalveolar lavage fluid, single drug alone",[2],could not be achieved
same,"pathological manifestations of lung inflammation, single drug alone",asthma mice [3],could not be achieved

# Source: US10898576B2, “Glucocorticoid combined with polyethylene glycol-modified interleukin 2 for treating respiratory disease” (priority 2016, dated 2021)
